From the NIST ThermoML archive (doi:10.1016/j.jct.2008.12.003)
± gives the expanded uncertainty stated by the source.

Conditions: 101.33 kPa, Liquid, Pycnometric method

Row | Compound | mass density (303.15 K) | mass density (313.15 K) | mass density (323.15 K) | mass density (333.15 K) | mass density (343.15 K)
1 | OCCCOCCCO [4-oxa-1,7-heptanediol] | 1014 ± 1 kg/m3 | 1007 ± 1 kg/m3 | 999 ± 1 kg/m3 | 991 ± 1 kg/m3 | 984 ± 1 kg/m3
2 | OCCOCCO [diethylene glycol] | 1109 ± 1 kg/m3 | 1103 ± 1 kg/m3 | 1095 ± 1 kg/m3 | 1088 ± 1 kg/m3 | 1081 ± 1 kg/m3
